Test results from patent US9872873B2, “Process for preparing stable pharmaceutical compositions of compounds susceptible to hydrolysis” (Fresenius Kabi Oncology Limited, priority 2012, dated 2018).

Legend:
Type in all cases: physicochemical
[1] = Solution stability profile of Azacitidine in water at 25° C.; set-up: unit not given here
Experimental: In one embodiment of the invention, a batch of Azacitidine bulk solution was prepared by dissolving the compound (4 mg/mL) and Mannitol (4 mg/mL) in water at room temperature. […]

[2] = Solution stability profile of Azacitidine in water at −1° C. to 0° C.; set-up: RGU / Specified Imp-1 / Specified Imp-2 / RGU-CHO / Total Impurity (excluding RGU & RGU-CHO): unit not given here; settings: for RGU / RGU-CHO / Specified Imp-1 / Specified Imp-2 / Total Impurity (excluding RGU & RGU-CHO): water, −1° C. to 0° C.
Experimental: It is evident from the Table I that Fabrication of the Azacitidine in water at room temperature led to a significant increase in the level of “RGU-CHO” in the Bulk Solution. Further, in order to control the degradation rate of Azacitidine, another batch was manufactured in water at possible temperature i.e. −1° C. to 0° C. by dissolving Azacitidine (4 mg/mL) and Mannitol (4 mg/mL) in water at −1° C. to 0° C. and the solution stability results are shown below in Table II.

[3] = Solution stability of Azacitidine bulk solution in Water:Acetonitrile 80:20% v/v at −5 ± 2° C.; set-up: RGU / RGU-CHO: unit not given beside the values
Experimental: (§1) In another aspect of the invention the fabrication temperature was controlled at −5±3° C., −5±2° C., −5±1° C. preferably −5±2° C. using Water and Acetonitrile ratio in between 95:5 to 70:30 preferably 80:20 (% v/v) respectively. The hold time data of Azacitidine, Decitabine and Bendamustine obtained in solvent mixture of Water and Acetonitrile at a ratio of 80:20 (% v/v), when fabricated at a temperature range of −5±2° C. is presented in Table VIII, IX, X respectively.

[4] = Stability profile of Bendamustine Hydrochloride pre-lyophilized bulk solution in water (5 mg/mL) at 5 ± 3° C.
[5] = Solution stability of Bendamustine Hydrochloride bulk solution in Water:Acetonitrile 80:20% v/v at −5 ± 2° C.
Experimental: as §1

Structure (SMILES): Nc1ncn([C@@H]2O[C@H](CO)[C@@H](O)[C@H]2O)c(=O)n1 [Azacitidine]
- Imp-1 ([1]; 1st hour): 0.027
- Imp-2 ([1]; 1st hour): 0.050
- RGU ([1]; 1st hour): 0.314
- RGU-CHO ([1]; 1st hour): 6.966
- Total Impurity (excluding RGU & RGU-CHO) ([1]; 1st hour): 0.077
- Imp-1 ([1]; 2nd hour): 0.028
- Imp-2 ([1]; 2nd hour): 0.050
- RGU ([1]; 2nd hour): 0.591
- RGU-CHO ([1]; 2nd hour): 10.495
- Total Impurity (excluding RGU & RGU-CHO) ([1]; 2nd hour): 0.078
- Imp-1 ([1]; Initial): 0.027
- Imp-2 ([1]; Initial): 0.051
- RGU ([1]; Initial): 0.164
- RGU-CHO ([1]; Initial): 1.158
- Total Impurity (excluding RGU & RGU-CHO) ([1]; Initial): 0.078
- degradation in RGU-CHO ([2]; manufacturing in water at −1° C. to 0° C.): around 4%
- RGU ([2]; 1st hour): 0.175
- RGU-CHO ([2]; 1st hour): 1.767
- Specified Imp-1 ([2]; 1st hour): 0.025
- Specified Imp-2 ([2]; 1st hour): 0.051
- Total Impurity (excluding RGU & RGU-CHO) ([2]; 1st hour): 0.076
- RGU ([2]; 2nd hour): 0.166
- RGU-CHO ([2]; 2nd hour): 2.283
- Specified Imp-1 ([2]; 2nd hour): 0.025
- Specified Imp-2 ([2]; 2nd hour): 0.051
- Total Impurity (excluding RGU & RGU-CHO) ([2]; 2nd hour): 0.076
- RGU ([2]; 3rd hour): 0.175
- RGU-CHO ([2]; 3rd hour): 2.921
- Specified Imp-1 ([2]; 3rd hour): 0.026
- Specified Imp-2 ([2]; 3rd hour): 0.051
- Total Impurity (excluding RGU & RGU-CHO) ([2]; 3rd hour): 0.077
- RGU ([2]; 4th hour): 0.191
- RGU-CHO ([2]; 4th hour): 4.112
- Specified Imp-1 ([2]; 4th hour): 0.027
- Specified Imp-2 ([2]; 4th hour): 0.051
- Total Impurity (excluding RGU & RGU-CHO) ([2]; 4th hour): 0.078
- RGU ([2]; Initial): 0.158
- RGU-CHO ([2]; Initial): 0.891
- Specified Imp-1 ([2]; Initial): 0.027
- Specified Imp-2 ([2]; Initial): 0.051
- Total Impurity (excluding RGU & RGU-CHO) ([2]; Initial): 0.078
- Assay ([3]; 1st hour): 101.00
- Imp-1 ([3]; 1st hour): 0.028
- Imp-2 ([3]; 1st hour): 0.066
- RGU ([3]; 1st hour): 0.145
- RGU-CHO ([3]; 1st hour): 0.326
- Total Impurity (excluding RGU & RGU-CHO) ([3]; 1st hour): 0.094
- Assay ([3]; 2nd hour): 101.30
- Imp-1 ([3]; 2nd hour): 0.028
- Imp-2 ([3]; 2nd hour): 0.066
- RGU ([3]; 2nd hour): 0.145
- RGU-CHO ([3]; 2nd hour): 0.45
- Total Impurity (excluding RGU & RGU-CHO) ([3]; 2nd hour): 0.094
- Assay ([3]; 3rd hour): 100.80
- Imp-1 ([3]; 3rd hour): 0.031
- Imp-2 ([3]; 3rd hour): 0.068
- RGU ([3]; 3rd hour): 0.146
- RGU-CHO ([3]; 3rd hour): 0.591
- Total Impurity (excluding RGU & RGU-CHO) ([3]; 3rd hour): 0.099
- Assay ([3]; 4th hour): 101.30
- Imp-1 ([3]; 4th hour): 0.026
- Imp-2 ([3]; 4th hour): 0.067
- RGU ([3]; 4th hour): 0.146
- RGU-CHO ([3]; 4th hour): 0.730
- Total Impurity (excluding RGU & RGU-CHO) ([3]; 4th hour): 0.093
- Assay ([3]; 5th hour): 101.00
- Imp-1 ([3]; 5th hour): 0.049
- Imp-2 ([3]; 5th hour): 0.069
- RGU ([3]; 5th hour): 0.148
- RGU-CHO ([3]; 5th hour): 0.839
- Total Impurity (excluding RGU & RGU-CHO) ([3]; 5th hour): 0.118
- Assay ([3]; Initial): 101.80
- Imp-1 ([3]; Initial): 0.05
- Imp-2 ([3]; Initial): 0.068
- RGU ([3]; Initial): 0.143
- RGU-CHO ([3]; Initial): 0.164
- Total Impurity (excluding RGU & RGU-CHO) ([3]; Initial): 0.118

Structure (SMILES): Cl.Cn1c(CCCC(=O)O)nc2cc(N(CCCl)CCCl)ccc21 [Bendamustine Hydrochloride]
- Bendamustine Dimer (RRT 1.23) ([4]; 4 hr): 0.06%
- Bendamustine Ethyl Ester (BD 5) (RRT 1.38) ([4]; 4 hr): 0.01%
- H-unk (Highest Unknown Impurity) ([4]; 4 hr): 0.01%
- Monohydroxy Bendamustine (RRT 0.47) ([4]; 4 hr): 0.58%
- Total Related Substances ([4]; 4 hr): 0.69%
- Bendamustine Dimer (RRT 1.23) ([4]; 8 hr): 0.10%
- Bendamustine Ethyl Ester (BD 5) (RRT 1.38) ([4]; 8 hr): 0.01%
- H-unk (Highest Unknown Impurity) ([4]; 8 hr): 0.01%
- Monohydroxy Bendamustine (RRT 0.47) ([4]; 8 hr): 1.59%
- Total Related Substances ([4]; 8 hr): 1.77%
- Bendamustine Dimer (RRT 1.23) ([4]; 24 hr): 0.19%
- Bendamustine Ethyl Ester (BD 5) (RRT 1.38) ([4]; 24 hr): 0.01%
- H-unk (Highest Unknown Impurity) ([4]; 24 hr): 0.01%
- Monohydroxy Bendamustine (RRT 0.47) ([4]; 24 hr): 4.13%
- Total Related Substances ([4]; 24 hr): 4.37%
- Bendamustine Dimer (RRT 1.23) ([4]; Initial): 0.04%
- Bendamustine Ethyl Ester (BD 5) (RRT 1.38) ([4]; Initial): 0.00%
- H-unk (Highest Unknown Impurity) ([4]; Initial): 0.01%
- Monohydroxy Bendamustine (RRT 0.47) ([4]; Initial): 0.12%
- Total Related Substances ([4]; Initial): 0.20%
- Bendamustine Dimer (RRT 1.23) ([5]; 1 hr): 0.05%
- Bendamustine Ethyl Ester (BD 5) (RRT 1.38) ([5]; 1 hr): 0.003%
- H-unk (Highest Unknown Impurity) ([5]; 1 hr): 0.03%
- Monohydroxy Bendamustine (RRT 0.47) ([5]; 1 hr): 0.02%
- Total Related Substances ([5]; 1 hr): 0.17%
- Bendamustine Dimer (RRT 1.23) ([5]; 2 hr): 0.05%
- Bendamustine Ethyl Ester (BD 5) (RRT 1.38) ([5]; 2 hr): 0.003%
- H-unk (Highest Unknown Impurity) ([5]; 2 hr): 0.03%
- Monohydroxy Bendamustine (RRT 0.47) ([5]; 2 hr): 0.03%
- Total Related Substances ([5]; 2 hr): 0.18%
- Bendamustine Dimer (RRT 1.23) ([5]; 3 hr): 0.05%
- Bendamustine Ethyl Ester (BD 5) (RRT 1.38) ([5]; 3 hr): 0.003%
- H-unk (Highest Unknown Impurity) ([5]; 3 hr): 0.03%
- Monohydroxy Bendamustine (RRT 0.47) ([5]; 3 hr): 0.04%
- Total Related Substances ([5]; 3 hr): 0.19%
- Bendamustine Dimer (RRT 1.23) ([5]; 6 hr): 0.06%
- Bendamustine Ethyl Ester (BD 5) (RRT 1.38) ([5]; 6 hr): 0.003%
- H-unk (Highest Unknown Impurity) ([5]; 6 hr): 0.03%
- Monohydroxy Bendamustine (RRT 0.47) ([5]; 6 hr): 0.07%
- Total Related Substances ([5]; 6 hr): 0.23%
- Bendamustine Dimer (RRT 1.23) ([5]; 8 hr): 0.06%
- Bendamustine Ethyl Ester (BD 5) (RRT 1.38) ([5]; 8 hr): 0.003%
- H-unk (Highest Unknown Impurity) ([5]; 8 hr): 0.03%
- Monohydroxy Bendamustine (RRT 0.47) ([5]; 8 hr): 0.09%
- Total Related Substances ([5]; 8 hr): 0.25%
- Bendamustine Dimer (RRT 1.23) ([5]; Initial): 0.05%
- Bendamustine Ethyl Ester (BD 5) (RRT 1.38) ([5]; Initial): 0.003%
- H-unk (Highest Unknown Impurity) ([5]; Initial): 0.03%
- Monohydroxy Bendamustine (RRT 0.47) ([5]; Initial): 0.01%
- Total Related Substances ([5]; Initial): 0.15%
